In patent publication US8476265B2, “Compounds-801” (AstraZeneca AB, priority 2010, dated 2013):

Key:
[1] = target: T1, Adrenergic β2 (Homo sapiens, UniProt P07550); experiment: Adrenergic β2 mediated cAMP production in H292 cells, single concentration 1 μM; format: cell-based; details: cAMP as percentage of the maximum response generated by 1E-07M formoterol; for percent of formoterol maximum response at 1 µM: NCI-H292, 1 μM compound, read-out: β2 % effect @1 uM
T1 construct: Adherent H292 cells are removed from tissue culture flasks by treatment with Accutase™ cell detachment solution; endogenous in cells; host or cells: H292 cells
T1 sequence (P07550 whole entry): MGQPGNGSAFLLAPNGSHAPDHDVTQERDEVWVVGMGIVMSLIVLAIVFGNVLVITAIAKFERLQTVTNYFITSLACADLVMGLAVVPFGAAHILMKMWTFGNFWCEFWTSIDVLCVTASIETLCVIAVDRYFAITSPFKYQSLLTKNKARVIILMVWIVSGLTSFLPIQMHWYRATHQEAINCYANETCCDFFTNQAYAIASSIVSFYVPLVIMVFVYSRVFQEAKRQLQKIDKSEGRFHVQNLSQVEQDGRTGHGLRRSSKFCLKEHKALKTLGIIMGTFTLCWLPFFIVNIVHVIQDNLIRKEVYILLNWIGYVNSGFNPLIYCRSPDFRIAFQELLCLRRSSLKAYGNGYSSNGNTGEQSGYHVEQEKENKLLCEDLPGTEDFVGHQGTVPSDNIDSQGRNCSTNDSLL
Procedure, shortened: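 H292 cells pretreated with rolipram (300 μM final) 10 min, then compound at 1 μM final, 1% DMSO, 60 min at room temperature in HBSS/10 mM HEPES pH 7.4/5 mM glucose. Lysate cAMP quantified by AlphaScreen against a standard curve, as % of maximal response to 1E-07M formoterol.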

[2] = target: T2, human muscarinic acetylcholine M3 receptor (Homo sapiens, UniProt P20309); experiment: Muscarinic 3 receptor binding assay ([3H]NMS competition, SPA), single concentration 1 μM; details: 1 μM compound; % inhibition specific [3H]-NMS binding
T2 construct: expressed in transfected cells; host or cells: CHO-K1 (Chinese Hamster Ovary) cell membranes
T2 sequence (P20309 whole entry): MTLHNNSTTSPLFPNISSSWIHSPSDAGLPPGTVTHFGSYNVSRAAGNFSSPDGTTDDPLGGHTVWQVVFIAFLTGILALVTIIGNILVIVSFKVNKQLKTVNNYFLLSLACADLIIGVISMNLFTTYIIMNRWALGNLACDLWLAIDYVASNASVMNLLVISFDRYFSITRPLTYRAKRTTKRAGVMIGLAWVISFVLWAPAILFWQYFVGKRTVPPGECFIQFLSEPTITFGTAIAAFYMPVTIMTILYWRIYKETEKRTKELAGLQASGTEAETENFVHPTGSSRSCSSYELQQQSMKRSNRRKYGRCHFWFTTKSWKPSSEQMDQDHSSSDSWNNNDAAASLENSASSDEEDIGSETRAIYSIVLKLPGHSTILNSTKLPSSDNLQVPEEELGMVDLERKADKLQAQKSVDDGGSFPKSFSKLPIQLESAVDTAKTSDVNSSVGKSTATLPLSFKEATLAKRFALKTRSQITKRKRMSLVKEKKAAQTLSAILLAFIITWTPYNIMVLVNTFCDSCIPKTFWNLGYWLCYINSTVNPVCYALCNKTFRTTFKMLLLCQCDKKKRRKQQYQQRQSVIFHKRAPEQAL
Procedure, shortened: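 CHO-K1 membranes expressing human M3 on SPA beads, competition with 0.1 nM [3H]NMS (quarter Kd) in 20 mM HEPES pH 7.4, 5 mM MgCl2, 0.1% BSA, 1% DMSO; compound at 1 μM. 16 h at room temperature. Value is % inhibition of specific binding, non-specific defined with 1 μM atropine.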

Compound	percent of formoterol maximum response at 1 µM [1] [%]	inhibition at 1 µM [2] [%]	β2 % effect @1 uM ([1]; 1 μM compound) [%]	M3 % inhibition @1 uM [2] [%]
O=C1COc2c(CCNCCN(C(=O)CCOCCc3cccc(CN4CCC5(CC4)CN(C(=O)c4n[nH]cc4Cl)CCO5)c3)C3CCCCC3)ccc(O)c2N1 [Example 133, 3-(3-((4-(4-Chloro-1H-pyrazole-3-carbonyl)-1-oxa-4,9-diazaspiro[5.5]undecan-9-yl)methyl)phenethoxy)-N-cyclohexyl-N-(2-(2-(5-hydroxy-3-oxo-3,4-dihydro-2H-benzo[b][1,4]oxazin-8-yl)ethylamino)ethyl)propanamide]	83	101		
O=C1COc2c(CCNCCN(C(=O)CCOCCc3cccc(CN4CCC5(CC4)CN(C(=O)C46CC7CC(F)(CC(F)(C7)C4)C6)CCO5)c3)C3CCCCC3)ccc(O)c2N1 [Example 143]			105	101
O=C1COc2c(CCNCCN(C(=O)CCOCCc3cccc(CN4CCC5(CC4)CN(C(=O)c4cnc6ccccc6c4)CCO5)c3)C3CCCCC3)ccc(O)c2N1 [Example 99, N-Cyclohexyl-N-(2-(2-(5-hydroxy-3-oxo-3,4-dihydro-2H-benzo[b][1,4]oxazin-8-yl)ethylamino)ethyl)-3-(3-((4-(quinoline-3-carbonyl)-1-oxa-4,9-diazaspiro[5.5]undecan-9-yl)methyl)phenethoxy)propanamide]	112	99		
O=C1COc2c(CCNCCN(C(=O)CCOCCc3cccc(CN4CCC5(CC4)CN(C(=O)c4cncc(Br)c4)CCO5)c3)C3CCCCC3)ccc(O)c2N1 [Example 102, 3-(3-((4-(5-Bromonicotinoyl)-1-oxa-4,9-diazaspiro[5.5]undecan-9-yl)methyl)phenethoxy)-N-cyclohexyl-N-(2-(2-(5-hydroxy-3-oxo-3,4-dihydro-2H-benzo[b][1,4]oxazin-8-yl)ethylamino)ethyl)propanamide]	108	99		
O=C1COc2c(CCNCCN(C(=O)CCOCCc3cccc(CN4CCC5(CC4)CN(C(=O)c4ccc(-n6cccn6)cc4)CCO5)c3)C3CCCCC3)ccc(O)c2N1 [Example 122, 3-(3-((4-(4-(1H-Pyrazol-1-yl)benzoyl)-1-oxa-4,9-diazaspiro[5.5]undecan-9-yl)methyl)phenethoxy)-N-cyclohexyl-N-(2-(2-(5-hydroxy-3-oxo-3,4-dihydro-2H-benzo[b][1,4]oxazin-8-yl)ethylamino)ethyl)propanamide]	87	84		
O=C1COc2c(CCNCCN(C(=O)CCOCCc3cccc(CN4CCC5(CC4)CN(C(=O)C4CC=CCC4)CCO5)c3)C3CCCCC3)ccc(O)c2N1 (stereo not shown) [Example 105, 3-(3-((4-(Cyclohex-3-enecarbonyl)-1-oxa-4,9-diazaspiro[5.5]undecan-9-yl)methyl)phenethoxy)-N-cyclohexyl-N-(2-(2-(5-hydroxy-3-oxo-3,4-dihydro-2H-benzo[b][1,4]oxazin-8-yl)ethylamino)ethyl)propanamide]	109	99		
O=C1COc2c(CCNCCN(C(=O)CCOCCc3cccc(CN4CCC5(CC4)CN(C(=O)CCc4nc6ccccc6[nH]4)CCO5)c3)C3CCCCC3)ccc(O)c2N1 [Example 103, 3-(3-((4-(3-(1H-Benzo[d]imidazol-2-yl)propanoyl)-1-oxa-4,9-diazaspiro[5.5]undecan-9-yl)methyl)phenethoxy)-N-cyclohexyl-N-(2-(2-(5-hydroxy-3-oxo-3,4-dihydro-2H-benzo[b][1,4]oxazin-8-yl)ethylamino)ethyl)propanamide]	109	90		
O=C1COc2c(CCNCCN(C(=O)CCOCCc3cccc(CN4CCC5(CC4)CN(C(=O)c4ccc(-n6cccn6)nc4)CCO5)c3)C3CCCCC3)ccc(O)c2N1 [Example 112, 3-(3-((4-(6-(1H-Pyrazol-1-yl)nicotinoyl)-1-oxa-4,9-diazaspiro[5.5]undecan-9-yl)methyl)phenethoxy)-N-cyclohexyl-N-(2-(2-(5-hydroxy-3-oxo-3,4-dihydro-2H-benzo[b][1,4]oxazin-8-yl)ethylamino)ethyl)propanamide]	105	98		

Continued, in another order:

percent of formoterol maximum response at 1 µM [1] [%]	inhibition at 1 µM [2] [%]	Compound	β2 % effect @1 uM ([1]; 1 μM compound) [%]	M3 % inhibition @1 uM [2] [%]
92	99	Cc1ccc2[nH]c(C(=O)N3CCOC4(CCN(Cc5cccc(CCOCCC(=O)N(CCNCCc6ccc(O)c7c6OCC(=O)N7)C6CCCCC6)c5)CC4)C3)cc2c1 [Example 136, N-Cyclohexyl-N-(2-(2-(5-hydroxy-3-oxo-3,4-dihydro-2H-benzo[b][1,4]oxazin-8-yl)ethylamino)ethyl)-3-(3-((4-(5-methyl-1H-indole-2-carbonyl)-1-oxa-4,9-diazaspiro[5.5]undecan-9-yl)methyl)phenethoxy)propanamide]		
94	100	Cc1ccccc1CC(=O)N1CCOC2(CCN(Cc3cccc(CCOCCC(=O)N(CCNCCc4ccc(O)c5c4OCC(=O)N5)C4CCCCC4)c3)CC2)C1 [Example 139, N-Cyclohexyl-N-(2-(2-(5-hydroxy-3-oxo-3,4-dihydro-2H-benzo[b][1,4]oxazin-8-yl)ethylamino)ethyl)-3-(3-((4-(2-o-tolylacetyl)-1-oxa-4,9-diazaspiro[5.5]undecan-9-yl)methyl)phenethoxy)propanamide]		
94	91	Cc1ccc2nc(C(=O)N3CCOC4(CCN(Cc5cccc(CCOCCC(=O)N(CCNCCc6ccc(O)c7c6OCC(=O)N7)C6CCCCC6)c5)CC4)C3)cn2c1 [Example 172, N-Cyclohexyl-N-(2-(2-(5-hydroxy-3-oxo-3,4-dihydro-2H-benzo[b][1,4]oxazin-8-yl)ethylamino)ethyl)-3-(3-((4-(6-methylimidazo[1,2-a]pyridine-2-carbonyl)-1-oxa-4,9-diazaspiro[5.5]undecan-9-yl)methyl)phenethoxy)propanamide]		
97	98	O=C1COc2c(CCNCCN(C(=O)CCOCCc3cccc(CN4CCC5(CC4)CN(C(=O)c4c(F)cccc4F)CCO5)c3)C3CCCCC3)ccc(O)c2N1 [Example 163, N-Cyclohexyl-3-(3-((4-(2,6-difluorobenzoyl)-1-oxa-4,9-diazaspiro[5.5]undecan-9-yl)methyl)phenethoxy)-N-(2-(2-(5-hydroxy-3-oxo-3,4-dihydro-2H-benzo[b][1,4]oxazin-8-yl)ethylamino)ethyl)propanamide]		
94	98	Cc1ccccc1C(=O)N1CCOC2(CCN(Cc3cccc(CCOCCC(=O)N(CCNCCc4ccc(O)c5c4OCC(=O)N5)C4CCCCC4)c3)CC2)C1 [Example 158, N-Cyclohexyl-N-(2-(2-(5-hydroxy-3-oxo-3,4-dihydro-2H-benzo[b][1,4]oxazin-8-yl)ethylamino)ethyl)-3-(3-((4-(2-methylbenzoyl)-1-oxa-4,9-diazaspiro[5.5]undecan-9-yl)methyl)phenethoxy)propanamide]		
86	66	O=C1COc2c(CCNCCN(C(=O)CCOCCc3cccc(CN4CCC5(CC4)CN(C(=O)c4ccc(-n6ccnc6)cc4)CCO5)c3)C3CCCCC3)ccc(O)c2N1 [Example 135, 3-(3-((4-(4-(1H-Imidazol-1-yl)benzoyl)-1-oxa-4,9-diazaspiro[5.5]undecan-9-yl)methyl)phenethoxy)-N-cyclohexyl-N-(2-(2-(5-hydroxy-3-oxo-3,4-dihydro-2H-benzo[b][1,4]oxazin-8-yl)ethylamino)ethyl)propanamide]		
